Data from the NIST ThermoML archive (doi:10.1016/j.jct.2005.01.002).

Test: xn = mol fraction of the nth substance listed
Details: 101 kPa, Liquid

CCCCCOCCCCC [dipentyl ether] + CN(C)C=O
mass density [kg/m3]
Details | 298.15 K | 313.15 K | 328.15 K | 343.15 K | 358.15 K
x2 = 0.0416 | 781.66 | 771.34 | 759.02 | 746.76 | 734.14
x2 = 0.1163 | 787.12 | 776.77 | 764.39 | 752.03 | 739.41
x2 = 0.1609 | 790.65 | 780.27 | 767.84 | 755.43 | 742.78
x2 = 0.217 | 795.39 | 784.95 | 772.41 | 759.94 | 747.25
x2 = 0.2456 | 797.91 | 787.44 | 774.88 | 762.38 | 749.67
x2 = 0.3011 | 803.14 | 792.61 | 779.97 | 767.39 | 754.63
x2 = 0.3542 | 808.53 | 797.94 | 785.21 | 772.57 | 759.74
x2 = 0.4097 | 814.65 | 803.99 | 791.14 | 778.42 | 765.54
x2 = 0.457 | 820.29 | 809.57 | 796.61 | 783.81 | 770.89
x2 = 0.5002 | 825.83 | 815.04 | 801.98 | 789.12 | 776.12
x2 = 0.5187 | 828.35 | 817.52 | 804.42 | 791.51 | 778.49
x2 = 0.5486 | 832.57 | 821.67 | 808.5 | 795.54 | 782.47
x2 = 0.6123 | 842.35 | 831.31 | 817.97 | 804.87 | 791.69
x2 = 0.6525 | 849.15 | 837.99 | 824.54 | 811.37 | 798.06
x2 = 0.7141 | 860.63 | 849.31 | 835.68 | 822.37 | 808.9
x2 = 0.7678 | 872.03 | 860.55 | 846.65 | 833.17 | 819.65
x2 = 0.8272 | 886.29 | 874.58 | 860.43 | 846.76 | 833.11
x2 = 0.8585 | 894.75 | 882.91 | 868.61 | 854.86 | 840.93
x2 = 0.9152 | 911.86 | 899.77 | 885.03 | 871.15 | 857.02
x2 = 0.9534 | 924.96 | 912.63 | 897.96 | 883.55 | 869.17
